Experiment [1] concerns the target ligand binding domain (LBD) of recombinant human FXR (Homo sapiens (Human), UniProt Q96RI1). Briefly: FXR cell free coactivator (SRC-1) recruitment assay, TR-FRET. The following applies: FXR LBD (amino acids 244-476) with labeled SRC-1 domain, 25° C. for 60 minutes, activity relative to CDCA maximum; read-out: EC50 FXR- Biochemical TR-FRET/μM. As to the method:
A cell free coactivator recruitment assay was developed for FXR, to measure the functional potency of novel FXR compounds. In this assay, novel FXR compounds were bound to the ligand binding domain (LBD) of recombinant human FXR. The ability of this liganded homodimeric complex to recruit the co-activator protein steroid receptor coactivator 1 (SRC-1) was measured using Time-Resolved Fluorescence Resonance Energy Transfer (TR-FRET).
The LBD of human FXR (amino acids 244-476) was cloned into an expression vector for protein expression in SF9 insect cells. Purified FXR LBD was incubated in TR-FRET coregulator buffer G (Eurofins) with test compounds (0-10 micromolar) and a labeled nuclear receptor interaction domain of SRC-1 at 25° C. for 60 minutes (final DMSO vehicle concentration was 1.2%). Assays were analyzed using an Envision TR-FRET reader (PerkinElmer Life and Analytical Sciences). Compound activity at each concentration was defined as a percentage of the maximal activity of the natural FXR ligand agonist chenodeoxycholic acid (CDCA) generating a dose response curve.
Background: Time-resolved FRET reads energy transfer from a long-lived donor to a nearby acceptor.

The target of experiment [2] is full length human FXR protein (Homo sapiens (Human), UniProt Q96RI1). Briefly: FXR cellular assay (FXR-SRCP β-gal enzyme fragment complementation in CHO-K1 cells, chemiluminescence). The experiment is classed as cell-based. The following applies: CHO-K1 cells with SRCP-EA and ProLink-labeled FXR, 0-10 micromolar compound, 37° C. for 6h, read-out: EC50 FXR-cell Luminescence/. The source says: A cell based FXR assay was used to detect protein-protein interactions between an activated (ligand-bound), full length human FXR protein and a nuclear fusion protein containing a Steroid Receptor Coactivator Peptide (SCRP) domain. In this approach, two weakly complementing fragments of the 3-gal enzyme were expressed within stably transfected Chinese Hamster Ovary (CHO-K1) cells. The complementing fragments of the 3-gal enzyme (ProLink, PK; and Enzyme Acceptor, EA) were translationally fused to the C-terminus of a full-length FXR and to the SRCP, respectively. Complementation was driven by the protein-protein interaction between SRCP-EA and a ProLink-labeled FXR. Upon FXR-SRCP binding, the two fragments of 3-gal complement, forming a functional enzyme capable of hydrolyzing a substrate molecule and generating a chemiluminescent signal.
CHO-K1 cells containing SRCP-EA and ProLink-labeled FXR were plated in 384-well microplates and incubated at 37° C. overnight. A positive control FXR agonist, GW4064 (0-10 micromolar), or test compounds (0-10 micromolar) were added to plated cells and incubated at 37° C. for 6h (final DMSO vehicle concentration was 1%). The assay signal was generated by addition of 50% (v/v) detection reagent (19:5:1, cell assay buffer: substrate reagent 1: substrate reagent 2, DiscoverX) followed by incubation for 1h at ambient room temperature. Microplates were analyzed using an Envision reader (PerkinElmer Life and Analytical Sciences, Signal=chemiluminescence).

pEC50: −log10 of the molar value.

Sequence of full length human FXR protein (Q96RI1 whole entry, the tested form may be a part): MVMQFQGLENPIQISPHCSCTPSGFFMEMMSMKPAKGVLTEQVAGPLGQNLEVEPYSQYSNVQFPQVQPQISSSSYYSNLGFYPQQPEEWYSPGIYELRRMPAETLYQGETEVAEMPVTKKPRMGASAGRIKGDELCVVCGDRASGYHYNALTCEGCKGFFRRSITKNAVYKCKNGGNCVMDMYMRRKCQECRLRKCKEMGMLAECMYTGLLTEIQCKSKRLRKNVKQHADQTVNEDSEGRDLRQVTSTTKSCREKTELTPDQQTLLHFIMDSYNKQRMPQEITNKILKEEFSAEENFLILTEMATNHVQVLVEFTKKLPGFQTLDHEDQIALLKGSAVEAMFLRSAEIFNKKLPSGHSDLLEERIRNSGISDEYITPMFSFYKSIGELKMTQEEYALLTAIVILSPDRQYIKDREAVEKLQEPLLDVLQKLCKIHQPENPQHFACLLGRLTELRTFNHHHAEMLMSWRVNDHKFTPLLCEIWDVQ
Sequence of ligand binding domain (LBD) of recombinant human FXR (Q96RI1 254-486): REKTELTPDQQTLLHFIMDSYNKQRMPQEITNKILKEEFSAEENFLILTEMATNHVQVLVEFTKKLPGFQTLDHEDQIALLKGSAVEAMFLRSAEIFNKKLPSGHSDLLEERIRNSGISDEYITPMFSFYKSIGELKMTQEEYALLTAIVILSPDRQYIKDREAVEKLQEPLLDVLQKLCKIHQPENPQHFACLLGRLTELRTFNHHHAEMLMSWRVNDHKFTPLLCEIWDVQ
Sequence of ligand binding domain (LBD) of recombinant human FXR (Q15788 whole entry partner, the tested form may be a part): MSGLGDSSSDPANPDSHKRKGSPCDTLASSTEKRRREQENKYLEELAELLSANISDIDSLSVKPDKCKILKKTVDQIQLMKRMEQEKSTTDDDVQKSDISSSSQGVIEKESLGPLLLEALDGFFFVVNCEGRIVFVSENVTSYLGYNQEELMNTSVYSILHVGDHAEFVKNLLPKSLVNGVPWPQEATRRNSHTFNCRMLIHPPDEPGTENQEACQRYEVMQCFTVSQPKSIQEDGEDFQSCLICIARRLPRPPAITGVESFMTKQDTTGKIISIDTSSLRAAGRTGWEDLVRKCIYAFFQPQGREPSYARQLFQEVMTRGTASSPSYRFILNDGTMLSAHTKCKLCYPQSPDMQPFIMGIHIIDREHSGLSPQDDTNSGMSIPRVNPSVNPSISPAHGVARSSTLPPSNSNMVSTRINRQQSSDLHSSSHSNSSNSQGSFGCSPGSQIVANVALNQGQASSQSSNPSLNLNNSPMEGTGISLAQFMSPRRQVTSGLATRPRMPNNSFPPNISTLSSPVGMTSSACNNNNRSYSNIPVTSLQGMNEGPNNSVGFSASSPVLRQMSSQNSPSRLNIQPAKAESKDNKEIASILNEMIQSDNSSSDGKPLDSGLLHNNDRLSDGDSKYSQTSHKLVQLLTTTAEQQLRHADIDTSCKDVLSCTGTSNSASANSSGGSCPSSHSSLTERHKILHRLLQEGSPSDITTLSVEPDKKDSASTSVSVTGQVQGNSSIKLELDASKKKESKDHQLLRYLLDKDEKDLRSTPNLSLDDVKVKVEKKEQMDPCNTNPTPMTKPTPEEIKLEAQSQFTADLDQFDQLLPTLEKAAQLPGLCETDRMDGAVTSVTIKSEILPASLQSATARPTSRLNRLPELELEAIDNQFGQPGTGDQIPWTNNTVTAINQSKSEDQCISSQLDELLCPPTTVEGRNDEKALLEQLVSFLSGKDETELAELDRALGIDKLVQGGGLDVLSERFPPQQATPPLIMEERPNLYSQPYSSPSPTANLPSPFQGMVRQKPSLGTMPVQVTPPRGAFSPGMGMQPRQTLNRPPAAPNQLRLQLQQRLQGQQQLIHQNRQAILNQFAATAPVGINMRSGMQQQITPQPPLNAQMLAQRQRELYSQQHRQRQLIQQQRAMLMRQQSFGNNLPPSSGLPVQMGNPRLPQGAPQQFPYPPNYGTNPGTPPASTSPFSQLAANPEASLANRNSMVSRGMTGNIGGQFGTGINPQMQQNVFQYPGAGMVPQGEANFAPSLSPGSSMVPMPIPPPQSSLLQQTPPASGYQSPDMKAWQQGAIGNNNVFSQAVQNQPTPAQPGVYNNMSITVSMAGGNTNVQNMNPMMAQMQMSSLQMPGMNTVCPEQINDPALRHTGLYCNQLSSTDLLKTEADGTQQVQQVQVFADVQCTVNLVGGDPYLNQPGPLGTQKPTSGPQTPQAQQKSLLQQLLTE

For the compound `C[C@@H]1CN(c2ccc(-c3noc(=O)[nH]3)cc2)CC[C@@H]1OCc1c(-c2c(Cl)cccc2Cl)noc1C1CC1` [Example 31, 3-(4-((3R,4S)-4-((5-cyclopropyl-3-(2,6-dichlorophenyl)isoxazol-4-yl)methoxy)-3-methylpiperidin-1-yl)phenyl)-1,2,4-oxadiazol-5(4H)-one], the EC50 in experiment [1] came to 0.045 µM. Besides, in experiment [2], the pEC50 is 6.57.

Take `O=c1[nH]nc(-c2ccc(N3CCC(OCc4c(-c5c(Cl)cccc5Cl)noc4C4CC4)CC3)cc2F)o1` [Example 48, 5-(4-(4-((5-cyclopropyl-3-(2,6-dichlorophenyl)isoxazol-4-yl)methoxy)piperidin-1-yl)-2-fluorophenyl)-1,3,4-oxadiazol-2(3H)-one]: the EC50 in experiment [1] is 0.0416 µM. Also, the pEC50 in experiment [2] is 6.47.

Consider `C[C@@H]1C[C@H](OCc2c(-c3c(Cl)cccc3Cl)noc2C2CC2)CCN1c1ccc(-c2noc(=O)[nH]2)cc1` [Example 23, 3-(4-((2R,4R)-4-((5-cyclopropyl-3-(2,6-dichlorophenyl)isoxazol-4-yl)methoxy)-2-methylpiperidin-1-yl)phenyl)-1,2,4-oxadiazol-5(4H)-one], for which the EC50 in experiment [1] was found to be 0.0031 µM. For the same compound, the pEC50 in experiment [2] was 7.56.

Regarding `N#Cc1nn(-c2ccc(N3[C@@H]4CC[C@H]3C[C@@H](OCc3c(-c5ccccc5OC(F)(F)F)noc3C3CC3)C4)cc2)c(=O)[nH]c1=O` [Example 89, 2-(4-((1R,3r,5S)-3-((5-cyclopropyl-3-(2-(trifluoromethoxy)phenyl)isoxazol-4-yl)methoxy)-8-azabicyclo[3.2.1]octan-8-yl)phenyl)-3,5-dioxo-2,3,4,5-tetrahydro-1,2,4-triazine-6-carbonitrile], in experiment [2], the pEC50 was 6.00.

As for `N#Cc1n[nH]c(=O)n(-c2ccc(N3CCC(OCc4c(-c5c(Cl)cccc5Cl)noc4C4CC4)CC3)nc2)c1=O` [Example 83, 4-(6-(4-((5-cyclopropyl-3-(2,6-dichlorophenyl)isoxazol-4-yl)methoxy)piperidin-1-yl)pyridin-3-yl)-3,5-dioxo-2,3,4,5-tetrahydro-1,2,4-triazine-6-carbonitrile], the pEC50 in experiment [2] was 5.28.

For the compound `O=c1cnn(-c2ccc(N3[C@@H]4CC[C@H]3C[C@@H](OCc3c(-c5ccccc5OC(F)(F)F)noc3C3CC3)C4)cc2)c(=O)[nH]1` [Example 88, 2-(4-((1R,3r,5S)-3-((5-cyclopropyl-3-(2-(trifluoromethoxy)phenyl)isoxazol-4-yl)methoxy)-8-azabicyclo[3.2.1]octan-8-yl)phenyl)-1,2,4-triazine-3,5(2H,4H)-dione], the pEC50 in experiment [2] is 6.34.

With `O=c1cc(-c2ccc(N3CCC(OCc4c(-c5ccccc5OC(F)(F)F)noc4C4CC4)C(F)(F)C3)cc2)o[nH]1` (stereo not drawn) [Example 84, 5-(4-(4-((5-cyclopropyl-3-(2-(trifluoromethoxy)phenyl)isoxazol-4-yl)methoxy)-3,3-difluoropiperidin-1-yl)phenyl)isoxazol-3(2H)-one], the pEC50 in experiment [2] is 5.81.

`O=c1[nH]c(-c2ccc(N3CC[C@H](OCc4c(-c5ccccc5OC(F)(F)F)noc4C4CC4)[C@@H](F)C3)cc2)no1` [Example 80, 3-(4-((3S,4S)-4-((5-cyclopropyl-3-(2-(trifluoromethoxy)phenyl)isoxazol-4-yl)methoxy)-3-fluoropiperidin-1-yl)phenyl)-1,2,4-oxadiazol-5(4H)-one]: the pEC50 in experiment [2] is 6.19.

In the case of `O=c1[nH]c(-c2ccc(N3[C@@H]4CC[C@H]3C[C@@H](OCc3c(-c5ccccc5Cl)noc3C3CC3)C4)nc2)no1` [Example 77, 3-(6-((1R,3r,5S)-3-((3-(2-chlorophenyl)-5-cyclopropylisoxazol-4-yl)methoxy)-8-azabicyclo[3.2.1]octan-8-yl)pyridin-3-yl)-1,2,4-oxadiazol-5(4H)-one], the pEC50 in experiment [2] is 7.16.

For `O=c1[nH]c(-c2ccc(N3[C@@H]4CC[C@H]3C[C@@H](OCc3c(-c5c(F)cccc5F)noc3C3CC3)C4)nc2)no1` [Example 78, 3-(6-((1R,3r,5S)-3-((5-cyclopropyl-3-(2,6-difluorophenyl)isoxazol-4-yl)methoxy)-8-azabicyclo[3.2.1]octan-8-yl)pyridin-3-yl)-1,2,4-oxadiazol-5(4H)-one], in experiment [2], the pEC50 is 6.81.

For the compound `O=c1[nH]c(-c2ccc(N3CC[C@@H](OCc4c(-c5ccccc5OC(F)(F)F)noc4C4CC4)[C@H](F)C3)cc2)no1` [Example 79, 3-(4-((3R,4R)-4-((5-cyclopropyl-3-(2-(trifluoromethoxy)phenyl)isoxazol-4-yl)methoxy)-3-fluoropiperidin-1-yl)phenyl)-1,2,4-oxadiazol-5(4H)-one], the pEC50 in experiment [2] is 6.51.

As to `N#Cc1nn(-c2ccc(N3CCC(OCc4c(-c5ccccc5OC(F)(F)F)noc4C4CC4)CC3)cc2)c(=O)[nH]c1=O` [Example 85, 2-(4-(4-((5-cyclopropyl-3-(2-(trifluoromethoxy)phenyl)isoxazol-4-yl)methoxy)piperidin-1-yl)phenyl)-3,5-dioxo-2,3,4,5-tetrahydro-1,2,4-triazine-6-carbonitrile], the pEC50 in experiment [2] was 6.12.

For `O=c1[nH]c(-c2ccc(N3CCC(OCc4c(-c5ccccc5OC(F)(F)F)noc4C4CC4)CC3)nc2)no1` [Example 75, 3-(6-(4-((5-cyclopropyl-3-(2-(trifluoromethoxy)phenyl)isoxazol-4-yl)methoxy)piperidin-1-yl)pyridin-3-yl)-1,2,4-oxadiazol-5(4H)-one], in experiment [2], the pEC50 is 6.42.

Consider `N#Cc1n[nH]c(=O)n(-c2ccc(N3CCC(OCc4c(-c5ccccc5OC(F)(F)F)noc4C4CC4)CC3)cc2)c1=O` [Example 86, 4-(4-(4-((5-cyclopropyl-3-(2-(trifluoromethoxy)phenyl)isoxazol-4-yl)methoxy)piperidin-1-yl)phenyl)-3,5-dioxo-2,3,4,5-tetrahydro-1,2,4-triazine-6-carbonitrile], for which the pEC50 in experiment [2] is 4.64.

Take `O=c1cc(-c2ccc(N3CCC(OCc4c(-c5c(Cl)cccc5Cl)noc4C4CC4)C(F)(F)C3)cc2)o[nH]1` (stereo not drawn) [Example 87, 5-(4-(4-((5-cyclopropyl-3-(2,6-dichlorophenyl)isoxazol-4-yl)methoxy)-3,3-difluoropiperidin-1-yl)phenyl)isoxazol-3(2H)-one]: the pEC50 in experiment [2] was 6.58.

In the case of `O=c1cc(-c2ccc(N3[C@@H]4CC[C@H]3C[C@@H](OCc3c(-c5ccccc5OC(F)(F)F)noc3C3CC3)C4)cc2)o[nH]1` [Example 81, 5-(4-((1R,3r,5S)-3-((5-cyclopropyl-3-(2-(trifluoromethoxy)phenyl)isoxazol-4-yl)methoxy)-8-azabicyclo[3.2.1]octan-8-yl)phenyl)isoxazol-3(2H)-one], in experiment [2], the pEC50 was 6.76.

As to `N#Cc1nn(-c2ccc(N3CCC(OCc4c(-c5c(Cl)cccc5Cl)noc4C4CC4)CC3)nc2)c(=O)[nH]c1=O` [Example 82, 2-(6-(4-((5-cyclopropyl-3-(2,6-dichlorophenyl)isoxazol-4-yl)methoxy)piperidin-1-yl)pyridin-3-yl)-3,5-dioxo-2,3,4,5-tetrahydro-1,2,4-triazine-6-carbonitrile], the pEC50 in experiment [2] was 5.74.

On to `C[C@@H]1C[C@H](OCc2c(-c3ccccc3OC(F)(F)F)noc2C2CC2)CCN1c1ccc(-c2noc(=O)[nH]2)cn1` [Example 76, 3-(6-((2R,4R)-4-((5-cyclopropyl-3-(2-(trifluoromethoxy)phenyl)isoxazol-4-yl)methoxy)-2-methylpiperidin-1-yl)pyridin-3-yl)-1,2,4-oxadiazol-5(4H)-one], for which the pEC50 in experiment [2] is 6.71.

For the origin of these results see patent US20240116912A1, “COMPOUNDS AND METHODS FOR MODULATING FXR” (Terns Pharmaceuticals, Inc., priority 2020, published 2024).
